Test results: PubChem BioAssay (NCI)
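Assay format: 96-well plates, 48-hour exposure. TGI denotes the concentration required for complete inhibition of growth.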

Legend:
Assay in all cases: NCI tumour cell line growth inhibition, 48 h
P388 leukemia = system: P388 leukemia
P388/ADR leukemia = system: P388/ADR leukemia
SN12K1 renal = system: SN12K1 renal
BT-549 breast = system: BT-549 breast
RXF-631 renal = system: RXF-631 renal

## O=C1CNC(=O)N1
P388 leukemia
  TGI: > 520 µM
P388/ADR leukemia
  TGI: > 630 µM
SN12K1 renal
  TGI: > 1120 µM

## Cc1cc(C)c(S(=O)(=O)N(CCCCCCN)OCCCON(CCCCCCN)S(=O)(=O)c2c(C)cc(C)cc2C)c(C)c1
BT-549 breast
  TGI: 3.26 µM

## CC1(C)CCCC2(C)[C@@H]1CC[C@]13C[C@](C)(CC[C@@H]21)[C@@H]3CO (stereo not given in full)
RXF-631 renal
  TGI: > 100 µM
